The record followed here is patent publication US20210122730A1, “GLUCOCORTICOID RECEPTOR MODULATORS” (ORIC Pharmaceuticals, Inc., priority 2017, published 2021).

One may read the IC50 as the concentration at which inhibition is half-maximal. What is called inhibition is the drop in the measured response relative to a control, in per cent.

Data set [1] concerns the target T1, GR (Homo sapiens, UniProt P04150).
T1 construct: expressed in transfected cells; host or cells: CHO-K1
T1 sequence (P04150 1-777): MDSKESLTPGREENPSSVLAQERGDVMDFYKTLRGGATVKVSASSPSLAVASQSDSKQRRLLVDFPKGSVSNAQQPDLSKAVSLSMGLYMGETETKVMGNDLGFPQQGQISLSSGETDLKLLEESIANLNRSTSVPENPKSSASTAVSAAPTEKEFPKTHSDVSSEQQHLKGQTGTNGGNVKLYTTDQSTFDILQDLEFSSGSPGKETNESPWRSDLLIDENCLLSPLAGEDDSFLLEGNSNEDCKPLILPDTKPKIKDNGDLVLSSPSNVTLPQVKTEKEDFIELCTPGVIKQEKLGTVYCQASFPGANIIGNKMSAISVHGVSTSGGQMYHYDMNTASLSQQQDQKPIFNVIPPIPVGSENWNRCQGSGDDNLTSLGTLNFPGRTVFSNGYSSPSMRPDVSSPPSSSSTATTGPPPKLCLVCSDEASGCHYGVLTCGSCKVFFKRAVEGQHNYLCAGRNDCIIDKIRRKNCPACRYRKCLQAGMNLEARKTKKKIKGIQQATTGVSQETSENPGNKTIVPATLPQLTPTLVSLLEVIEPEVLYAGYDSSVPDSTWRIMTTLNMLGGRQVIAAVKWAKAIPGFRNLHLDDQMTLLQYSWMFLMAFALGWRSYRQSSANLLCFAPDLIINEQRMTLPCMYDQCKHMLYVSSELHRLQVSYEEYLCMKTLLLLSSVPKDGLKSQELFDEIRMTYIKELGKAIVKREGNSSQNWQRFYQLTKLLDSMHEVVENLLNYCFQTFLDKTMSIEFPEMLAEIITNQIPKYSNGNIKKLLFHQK
The data set can be described thus: In Vitro GR Luciferase Reporter Assay (antagonist mode, CHO-K1-GR-MMTV-Luc reporter cells). It counts as cell-based. Conditions: antagonist mode, 10 nM Dexamethasone. In a few lines:
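Antagonist mode: compounds (8 serial 1:5 dilutions) added to GR-MMTV-luciferase CHO-K1 reporter cells co-exposed to 10 nM dexamethasone final, in phenol red-free DMEM plus 10% CSS. After roughly 18-24 h at 37° C, OneGlo luminescence read and IC50 calculated.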

The target of data set [2] is T2, CYP2C8 (Homo sapiens, UniProt P10632).
T2 construct: Pooled human microsomes were obtained from Sekisui XenoTech, KS; tissue Sekisui XenoTech, KS; host or cells: pooled human liver microsomes
T2 sequence (P10632 1-490): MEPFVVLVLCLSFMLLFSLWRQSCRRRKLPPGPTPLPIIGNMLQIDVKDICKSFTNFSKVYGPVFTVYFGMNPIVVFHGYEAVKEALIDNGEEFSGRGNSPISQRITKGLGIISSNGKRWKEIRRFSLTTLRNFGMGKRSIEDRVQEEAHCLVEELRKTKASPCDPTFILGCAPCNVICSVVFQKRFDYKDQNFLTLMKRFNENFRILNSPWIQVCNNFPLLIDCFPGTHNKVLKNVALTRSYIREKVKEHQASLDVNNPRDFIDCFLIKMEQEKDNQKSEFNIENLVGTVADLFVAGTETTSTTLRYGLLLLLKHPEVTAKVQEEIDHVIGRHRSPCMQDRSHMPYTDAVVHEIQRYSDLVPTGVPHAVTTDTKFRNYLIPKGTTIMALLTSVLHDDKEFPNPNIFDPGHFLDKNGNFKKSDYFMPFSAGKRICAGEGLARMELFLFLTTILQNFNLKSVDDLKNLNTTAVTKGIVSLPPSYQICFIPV
The data set can be described thus: CYP Inhibition Assay (CYP2C8, human liver microsomes, paclitaxel substrate). Conditions: pH 7.4; pooled human liver microsomes 0.1 mg/mL, probe substrate paclitaxel. It counts as in vitro ADME. In short, it runs like this:
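CYP2C8 activity read as 6α-hydroxypaclitaxel formation by LC-MS/MS, with % inhibition versus vehicle control. Reactions ran 5 min at 37° C, pH 7.4 phosphate buffer, 0.1 mg/mL pooled human liver microsomes, 1 mM NADPH, duplicate wells.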
(Liver microsomes are a subcellular fraction often used to study metabolism.)

`CC(C)N([C@H]1CCC2=Cc3c(cnn3-c3ccc(F)cc3)C[C@]2(C(=O)c2cc(F)ccn2)C1)S(=O)(=O)c1ccn(C)n1` [Example 241, N-((4aS,6S)-1-(4-fluorophenyl)-4a-(4-fluoropicolinoyl)-4,4a,5,6,7,8-hexahydro-1H-benzo[f]indazol-6-yl)-N-isopropyl-1-methyl-1H-pyrazole-3-sulfonamide] had an IC50 in data set [1] of at most 100 nM. In data set [2], the inhibition at 5 min was in the range of 75 to 90%.

Regarding `CC(C)N([C@H]1CCC2=Cc3c(cnn3-c3ccc(F)cc3)C[C@]2(C(=O)c2cc(Cl)ccn2)C1)S(=O)(=O)c1ccn(C)n1` [Example 242, N-((4aS,6S)-4a-(4-chloropicolinoyl)-1-(4-fluorophenyl)-4,4a,5,6,7,8-hexahydro-1H-benzo[f]indazol-6-yl)-N-isopropyl-1-methyl-1H-pyrazole-3-sulfonamide], in data set [1], the IC50 was at most 100 nM. For the same compound, the inhibition at 5 min in data set [2] lay within 75 to 90%.

In turn, `CCN([C@H]1CCC2=Cc3c(cnn3-c3ccc(F)cc3)C[C@]2(C(=O)c2cc(C(F)(F)F)ccn2)C1)S(=O)(=O)C1CCCC1` [Example 243, N-ethyl-N-((4aS,6S)-1-(4-fluorophenyl)-4a-(4-(trifluoromethyl)picolinoyl)-4,4a,5,6,7,8-hexahydro-1H-benzo[f]indazol-6-yl)cyclopentanesulfonamide] came in with an IC50 in data set [1] of at most 100 nM. Further, the inhibition at 5 min in data set [2] lay in the range of 50 to 75%.

In data set [1], `Cn1ccc(S(=O)(=O)N(CC2CC2)[C@H]2CCC3=Cc4c(cnn4-c4ccc(F)cc4)C[C@]3(C(=O)c3cc(F)ccn3)C2)n1` [Example 244, N-(cyclopropylmethyl)-N-((4aS,6S)-1-(4-fluorophenyl)-4a-(4-fluoropicolinoyl)-4,4a,5,6,7,8-hexahydro-1H-benzo[f]indazol-6-yl)-1-methyl-1H-pyrazole-3-sulfonamide] gave an IC50 of at most 100 nM. Besides, the inhibition at 5 min in data set [2] was 75 to 90%.

Turning to `Cn1ccc(S(=O)(=O)N(CC2CC2)[C@H]2CCC3=Cc4c(cnn4-c4ccc(F)cc4)C[C@]3(C(=O)c3cc(Cl)ccn3)C2)n1` [Example 245, N-((4aS,6S)-4a-(4-chloropicolinoyl)-1-(4-fluorophenyl)-4,4a,5,6,7,8-hexahydro-1H-benzo[f]indazol-6-yl)-N-(cyclopropylmethyl)-1-methyl-1H-pyrazole-3-sulfonamide], the IC50 in data set [1] was at most 100 nM. The same compound returned an inhibition at 5 min in data set [2] of 50 to 75%.

The compound `Cn1cc(S(=O)(=O)N(CC(C)(C)O)[C@H]2CCC3=Cc4c(cnn4-c4ccc(F)cc4)C[C@]3(C(=O)c3cc(Cl)ccn3)C2)cn1` [Example 246, N-((4aS,6S)-4a-(4-chloropicolinoyl)-1-(4-fluorophenyl)-4,4a,5,6,7,8-hexahydro-1H-benzo[f]indazol-6-yl)-N-(2-hydroxy-2-methylpropyl)-1-methyl-1H-pyrazole-4-sulfonamide] had an IC50 in data set [1] of at most 100 nM. In data set [2], this compound came in with an inhibition at 5 min of 25 to 50%.

In the case of `O=C(c1cc(C(F)F)ccn1)[C@]12Cc3cnn(-c4ccc(F)cc4)c3C=C1CC[C@H](N(C1CC1)S(=O)(=O)c1ccc(F)cc1)C2` [Example 247, N-cyclopropyl-N-((4aS,6S)-4a-(4-(difluoromethyl)picolinoyl)-1-(4-fluorophenyl)-4,4a,5,6,7,8-hexahydro-1H-benzo[f]indazol-6-yl)-4-fluorobenzenesulfonamide], the IC50 in data set [1] is at most 100 nM. In addition, in data set [2], the inhibition at 5 min lay in the range of 50 to 75%.

As for `Cn1cc(S(=O)(=O)N(CC(F)(F)F)[C@H]2CCC3=Cc4c(cnn4-c4ccc(F)cc4)C[C@]3(C(=O)c3ncc(C(F)(F)F)s3)C2)cn1` [Example 250, N-((4aS,6S)-1-(4-fluorophenyl)-4a-(5-(trifluoromethyl)thiazole-2-carbonyl)-4,4a,5,6,7,8-hexahydro-1H-benzo[f]indazol-6-yl)-1-methyl-N-(2,2,2-trifluoroethyl)-1H-pyrazole-4-sulfonamide], the IC50 in data set [1] is at most 100 nM. This compound displayed an inhibition at 5 min in data set [2] of 50 to 75%.

In turn, `Cn1ccc(S(=O)(=O)N(CC2(O)CC2)[C@H]2CCC3=Cc4c(cnn4-c4ccc(F)cc4)C[C@]3(C(=O)c3ncc(C(F)(F)F)s3)C2)n1` [Example 251, N-((4aS,6S)-1-(4-fluorophenyl)-4a-(5-(trifluoromethyl)thiazole-2-carbonyl)-4,4a,5,6,7,8-hexahydro-1H-benzo[f]indazol-6-yl)-N-((1-hydroxycyclopropyl)methyl)-1-methyl-1H-pyrazole-3-sulfonamide] showed an IC50 in data set [1] of at most 100 nM. Further, the inhibition at 5 min in data set [2] was in the range of 50 to 75%.

Compound `O=C(c1cc(F)ccn1)[C@]12Cc3cnn(-c4ccc(F)cc4)c3C=C1CC[C@H](N(CC1(O)CC1)S(=O)(=O)c1ccc(F)cc1)C2` [Example 254, 4-fluoro-N-((4aS,6S)-1-(4-fluorophenyl)-4a-(4-fluoropicolinoyl)-4,4a,5,6,7,8-hexahydro-1H-benzo[f]indazol-6-yl)-N-((1-hydroxycyclopropyl)methyl) benzenesulfonamide] registered an IC50 in data set [1] of at most 100 nM. Also, the inhibition at 5 min in data set [2] fell in the range of 50 to 75%.

With `Cn1ccc(S(=O)(=O)N(CC2(O)CC2)[C@H]2CCC3=Cc4c(cnn4-c4ccc(F)cc4)C[C@]3(C(=O)c3cc(F)ccn3)C2)n1` [Example 255, N-((4aS,6S)-1-(4-fluorophenyl)-4a-(4-fluoropicolinoyl)-4,4a,5,6,7,8-hexahydro-1H-benzo[f]indazol-6-yl)-N-((1-hydroxycyclopropyl)methyl)-1-methyl-1H-pyrazole-3-sulfonamide], the concentration for half-maximal inhibition (IC50) in data set [1] is at most 100 nM. The inhibition at 5 min in data set [2] fell in the range of 50 to 75%.

In data set [1], `Cn1ccc(S(=O)(=O)N(CC2(O)CC2)[C@H]2CCC3=Cc4c(cnn4-c4ccc(F)cc4)C[C@]3(C(=O)c3cc(Cl)ccn3)C2)n1` [Example 257, N-((4aS,6S)-4a-(4-chloropicolinoyl)-1-(4-fluorophenyl)-4,4a,5,6,7,8-hexahydro-1H-benzo[f]indazol-6-yl)-N-((1-hydroxycyclopropyl)methyl)-1-methyl-1H-pyrazole-3-sulfonamide] had an IC50 of at most 100 nM. The compound also registered an inhibition at 5 min in data set [2] of 50 to 75%.

`Cn1ccc(S(=O)(=O)N(C2CC2)[C@H]2CCC3=Cc4c(cnn4-c4ccc(F)cc4)C[C@]3(C(=O)c3cc(C(F)F)ccn3)C2)n1` [Example 258, N-cyclopropyl-N-((4aS,6S)-4a-(4-(difluoromethyl)picolinoyl)-1-(4-fluorophenyl)-4,4a,5,6,7,8-hexahydro-1H-benzo[f]indazol-6-yl)-1-methyl-1H-pyrazole-3-sulfonamide] displayed an IC50 in data set [1] of at most 100 nM. In addition, the inhibition at 5 min in data set [2] lay in the range of 50 to 75%.

In turn, `Cn1ccc(S(=O)(=O)N(C2CC2)[C@H]2CCC3=Cc4c(cnn4-c4ccc(F)cc4)C[C@]3(C(=O)c3ncc(Cl)cn3)C2)n1` [Example 259, N-((4aS,6S)-4a-(5-chloropyrimidine-2-carbonyl)-1-(4-fluorophenyl)-4,4a,5,6,7,8-hexahydro-1H-benzo[f]indazol-6-yl)-N-cyclopropyl-1-methyl-1H-pyrazole-3-sulfonamide] came in with an IC50 in data set [1] of at most 100 nM. The inhibition at 5 min in data set [2] was 25 to 50%.

`Cn1cc(S(=O)(=O)N(CC(F)(F)F)[C@H]2CCC3=Cc4c(cnn4-c4ccc(F)cc4)C[C@]3(C(=O)c3cc(F)ccn3)C2)cn1` [Example 260, N-((4aS,6S)-1-(4-fluorophenyl)-4a-(4-fluoropicolinoyl)-4,4a,5,6,7,8-hexahydro-1H-benzo[f]indazol-6-yl)-1-methyl-N-(2,2,2-trifluoroethyl)-1H-pyrazole-4-sulfonamide] registered an IC50 in data set [1] of at most 100 nM. Further, the inhibition at 5 min in data set [2] lay in the range of 50 to 75%.

In data set [1], `Cn1ccnc1S(=O)(=O)N(C1CC1)[C@H]1CCC2=Cc3c(cnn3-c3ccc(F)cc3)C[C@]2(C(=O)c2cc(C(F)(F)F)ccn2)C1` [Example 261, N-cyclopropyl-N-((4aS,6S)-1-(4-fluorophenyl)-4a-(4-(trifluoromethyl)picolinoyl)-4,4a,5,6,7,8-hexahydro-1H-benzo[f]indazol-6-yl)-1-methyl-1H-imidazole-2-sulfonamide] gave an IC50 of at most 100 nM. For the same compound, the inhibition at 5 min in data set [2] lay in the range of 50 to 75%.
